This passage reports Kd results from paper PMC2443152, “Molecular evolution of B6 enzymes: Binding of pyridoxal-5'-phosphate and Lys41Arg substitution turn ribonuclease A into a model B6 protoenzyme” (BMC Biochemistry, 2008).

In assay [1] the target is T1, bovine pancreatic ribonuclease A (RNase) (Bos taurus, UniProt P61823).
T1 construct: gene RNASE1; mature RNase A; recombinant from pET22b(+) NdeI/HindIII in E. coli BL21 (wild type also from bovine pancreas, Sigma type II); no tag mentioned
T1 sequence (P61823 27-150): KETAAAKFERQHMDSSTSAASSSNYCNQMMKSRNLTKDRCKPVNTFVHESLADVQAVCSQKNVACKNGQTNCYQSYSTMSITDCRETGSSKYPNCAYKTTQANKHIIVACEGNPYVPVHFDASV
The experiment in a line: intrinsic (tyrosine) fluorescence quenching titration, nonlinear regression. In kind it is binding. The conditions noted are these: read-out: Wild-type. The text has this:
(§1) intrinsic (tyrosine) fluorescence quenching titration, nonlinear regression on bovine pancreatic ribonuclease A (RNase)

The target in assay [2] is T2, bovine pancreatic ribonuclease A (RNase) (Bos taurus, UniProt P61823, K67R).
T2 construct: gene RNASE1; mature RNase A; recombinant from pET22b(+) NdeI/HindIII in E. coli BL21 (wild type also from bovine pancreas, Sigma type II); no tag mentioned
T2 sequence (P61823 27-150 K67R): T1 sequence (P61823 27-150) with K41R
The assay is described as above. It counts as binding.
Excerpt: as §1

Structures are written as SMILES. Where a chain is given by its changes, count along the chain named. Read-outs that look alike come from different tables or passages of the source.

For the compound `Cc1ncc(COP(=O)(O)O)c(C=O)c1O` [PLP], the Kd in assay [1] was 120 ± 5 µM; in assay [2] (read-out: K41R) it was 140 ± 10 µM.
On to `Cc1ncc(COP(=O)(O)O)c(CN)c1O` [PMP], for which the values for the Kd in assay [1] and in assay [2] (read-out: K41R) were 106 ± 5 µM and 107 ± 3 µM, respectively.
On to `Cc1ncc(COP(=O)(O)O)c(CN[C@H](C)C(=O)O)c1O` [PPL-D-alanine], for which the results for the Kd in assay [1] and in assay [2] (read-out: K41R) were 45 ± 1 µM and 40 ± 3 µM, respectively.
Take `Cc1ncc(COP(=O)(O)O)c(CN[C@@H](C)C(=O)O)c1O` [PPL-L-alanine]: the Kd in assay [1] and in assay [2] (read-out: Wild-type) was 23 ± 1 µM in each case.
